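All cell lines were grown in 96-well plates and treated with compound for 48 hours. GI50 = concentration required for 50% inhibition of growth. TGI denotes the concentration required for complete inhibition of growth.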
How the values were obtained:
Experiment in all cases: NCI-60 cell line screen, 48 h
786-0 renal = system: 786-0 renal
CAKI-1 renal = system: CAKI-1 renal
HCT-116 colon = system: HCT-116 colon
K-562 leukemia = system: K-562 leukemia
M14 melanoma = system: M14 melanoma
NCI-H226 lung = system: NCI-H226 lung
NCI-H522 lung = system: NCI-H522 lung
OVCAR-3 ovarian = system: OVCAR-3 ovarian
HS 578T breast = system: HS 578T breast
PC-3 prostate = system: PC-3 prostate

Compound | TGI (786-0 renal) | TGI (CAKI-1 renal) | TGI (HCT-116 colon) | TGI (K-562 leukemia) | TGI (M14 melanoma) | TGI (NCI-H226 lung) | TGI (NCI-H522 lung) | TGI (OVCAR-3 ovarian) | GI50 (786-0 renal) | GI50 (CAKI-1 renal) | GI50 (HCT-116 colon) | GI50 (HS 578T breast) | TGI (HS 578T breast) | GI50 (K-562 leukemia) | GI50 (M14 melanoma) | GI50 (NCI-H226 lung) | GI50 (NCI-H522 lung) | GI50 (OVCAR-3 ovarian) | GI50 (PC-3 prostate) | TGI (PC-3 prostate)
NC(=S)N/N=C(/CC(=O)c1ccccc1)C(=O)Nc1ccc(Cl)c(Cl)c1 | > 100 µM | > 100 µM | > 100 µM | > 100 µM | > 100 µM | > 100 µM | 59.4 µM | > 100 µM |  |  |  |  |  |  |  |  |  |  |  | 
Nc1c(C(=O)Nc2cccc([N+](=O)[O-])c2)sc2nc3c(cc12)C(O)CCC3 (stereo not drawn) | > 100 µM | > 100 µM | > 100 µM | > 100 µM | > 100 µM | > 100 µM | > 100 µM | > 100 µM | 13.5 µM | > 100 µM | 4.09 µM | 11 µM | > 100 µM | 0.852 µM | 3.39 µM | 29.6 µM | 6.11 µM | 4.53 µM |  | 
CN(C)S(=O)(=O)c1ccc(NC(=O)COC(=O)c2ccc(S(=O)(=O)N3CCCCC3)cc2)cc1 | > 100 µM | > 100 µM | > 100 µM | > 100 µM |  | > 100 µM | > 100 µM | > 100 µM | > 100 µM | > 100 µM | > 100 µM | > 100 µM | > 100 µM | > 100 µM |  | > 100 µM | > 100 µM | > 100 µM | > 100 µM | > 100 µM
COc1nc(NC2OCC(OC(C)=O)C(OC(C)=O)C2OC(C)=O)c(N=CC=Nc2c(NC3OCC(OC(C)=O)C(OC(C)=O)C3OC(C)=O)nc(OC)n(C)c2=O)c(=O)n1C (stereo not drawn) | > 100 µM |  | > 100 µM | > 100 µM | > 100 µM |  | > 100 µM | > 100 µM |  |  |  |  |  |  |  |  |  |  |  | 
CC1=NOC(=O)/C1=C/c1ccccc1O | > 100 µM | > 100 µM | > 100 µM | > 100 µM | > 100 µM | > 100 µM | > 100 µM | > 100 µM |  |  |  |  |  |  |  |  |  |  |  | 
CN(C)/C=C/c1nnc([N+](=O)[O-])s1 | 36.3 µM | 40.5 µM | 26.2 µM |  | 29.1 µM | 41.9 µM | 3.27 µM | 7.58 µM |  |  |  |  | 42.6 µM |  |  |  |  |  |  | 22 µM
O=C(c1ccccc1)C1N=NCC1c1ccc([N+](=O)[O-])cc1 (stereo not drawn) | > 100 µM | 44.5 µM | > 100 µM | > 100 µM | > 100 µM | > 100 µM |  | 48.4 µM |  |  |  |  | > 100 µM |  |  |  |  |  |  | > 100 µM
C=CCC1([C@H](C)[C@@H](OC(C)=O)c2cc(OC)c(OC)c(OC)c2)C[C@@H](OC)CCC1=O (stereo partly drawn) | 26.7 µM | > 100 µM | 32.3 µM | > 100 µM | 30.4 µM | 44.2 µM | 25.4 µM | 50.5 µM |  |  |  |  |  |  |  |  |  |  |  | 
CC1CCCCc2nc3c(c(=O)n21)CCCC3 (stereo not drawn) | > 100 µM | > 100 µM | > 100 µM | > 100 µM | > 100 µM | > 100 µM | > 100 µM | > 100 µM |  |  |  |  |  |  |  |  |  |  |  | 
CC1=NCCc2c1[nH]c1cc(O)ccc21 | > 100 µM | > 100 µM | > 100 µM | > 100 µM | > 100 µM | > 100 µM |  | > 100 µM |  |  |  |  |  |  |  |  |  |  |  | 
Nc1ccn(Cc2ccc(C34CC5CC(CC(C5)C3)C4)c(O)c2)c(=O)n1 | > 100 µM | > 100 µM | > 100 µM | > 100 µM | > 100 µM | > 100 µM | > 100 µM | > 100 µM | 47.7 µM | > 100 µM | > 100 µM | 14.4 µM | > 100 µM | 35.3 µM | > 100 µM | > 100 µM | 40.9 µM | 58.9 µM |  | 
CC1SC(c2c(Cl)cccc2Cl)N(NC(=O)c2[nH]c3ccc(F)cc3c2-c2ccccc2)C1=O (stereo not drawn) | 4.44 µM | 4.85 µM | 3.08 µM | > 100 µM | 30.2 µM |  | 5.83 µM | 3.45 µM | 2.14 µM | 1.83 µM | 1.71 µM | 1.93 µM | 4.38 µM | 21.9 µM | 3.96 µM |  | 1.87 µM | 1.76 µM | 1.98 µM | 4.46 µM
Cc1ccc(-c2c(N)[n+]([O-])c3ccccc3[n+]2[O-])cc1 | 28.6 µM | 9.97 µM |  | > 100 µM | 25.3 µM | 39.6 µM | 3.21 µM | 30.3 µM |  |  |  |  |  |  |  |  |  |  |  | 
COc1ccccc1NC(=O)CC(=O)N1N=C(C)C(N=Nc2ccc(S(N)(=O)=O)cc2)C1=O (stereo not drawn) | > 100 µM | > 100 µM | > 100 µM |  | > 100 µM | > 100 µM | > 100 µM | > 100 µM |  |  |  |  |  |  |  |  |  |  |  | 
N#C/C(=C1\OC(=O)C(c2ccc(Br)cc2)=C1O)c1ccc(Br)cc1 | 27.9 µM | 35.6 µM | 32.4 µM | 61.7 µM | 28.4 µM | 34 µM | 25.6 µM | 28.2 µM |  |  |  |  |  |  |  |  |  |  |  | 
COC(=O)CCC(NC(=S)N/N=C(\C)c1nccs1)C(=O)OC (stereo not drawn) | > 100 µM |  | > 100 µM | > 100 µM | > 100 µM | > 100 µM | 78.4 µM | > 100 µM |  |  |  |  |  |  |  |  |  |  |  | 
Nc1cc2cccc[n+]2c2cc(Cl)ccc12 |  |  |  | 22 µM | 47.4 µM | 59.5 µM | 33 µM |  | 8.16 µM |  | 30.2 µM | 16.6 µM | 51.4 µM | 3.01 µM | 19.3 µM | 13.5 µM | 11.8 µM |  |  | 
CC(=O)NC(CCCNCc1ccccc1)C(=O)NCc1ccccc1 (stereo not drawn) | > 100 µM | > 100 µM | > 100 µM | > 100 µM | > 100 µM | > 100 µM | > 100 µM | > 100 µM |  |  |  |  |  |  |  |  |  |  |  | 
CNC(=O)OCc1nc(SC2CCCCO2)n(C)c1COC(=O)NC (stereo not drawn) | > 100 µM | > 100 µM | > 100 µM | > 100 µM | > 100 µM | > 100 µM | > 100 µM | > 100 µM |  |  |  |  |  |  |  |  |  |  |  | 
COc1ccc2c(c1)C(O)(C(F)(F)F)c1cc(C(=O)C(F)(F)F)c3ccccc3c1N2 (stereo not drawn) | 26.3 µM | 26.8 µM |  | 15.7 µM | 18.1 µM | 28 µM | 20.6 µM | 29.4 µM |  |  |  |  |  |  |  |  |  |  |  | 
Cc1occc1C(=S)Nc1ccc(Cl)c(COC(C)(C)C)c1 | 30.3 µM | 38.9 µM | 32.1 µM |  | 43.5 µM | 34.2 µM | 28.6 µM | 30 µM |  |  |  |  | 49.6 µM |  |  |  |  |  |  | 30.6 µM

— PubChem BioAssay (NCI)
